Test results reported in patent US7994192B2, “Substituted thienopyridone compounds with antibacterial activity” (Crestone, Inc., priority 2006, dated 2011).

Legend:
C. difficile [1] = assay: C. difficile-infected hamster survival study; format: in vivo
Procedure: Animal studies were performed to determine the efficacy of MetRS inhibitors for treating C. difficile-infections. The MetRS inhibitors tested were 5-[3-((R)-6,8-Dibromo-chroman-4-ylamino)-propylamino]-4H-thieno[3,2-b]pyridine-7-one (both racemic mixture and the R enantiomer) and 5-[3-((R)-8-Bromo-6-chloro-chroman-4-ylamino)-propylamino]-4H-thieno[3,2-b]pyridin-7-one. Also tested was 2-(3-{3,5-Dibromo-2-[2-(4-methyl-thiazol-5-yl)-ethoxy]-benzylamino}-propylamino)-1H-quinolin-4-one.
Results were compared to C. difficile-infected hamsters treated with the conventional antibiotic, vancomycin. Infected hamsters were treated with either a solution or suspension of a MetRS inhibitor at 5 to 50 mg/kg or vancomycin at 2.5, 5 or 25 mg/kg. There were eight hamsters per group with the final endpoint of the experiment being survival. Expired hamsters were examined for GI condition.

C. difficile [2] = assay: Sporulation of C. difficile clinical isolates on agar containing compound; format: cell-based

## O=c1cc(NCCCN[C@@H]2CCOc3c(Br)cc(Br)cc32)[nH]c2ccsc12 [5-[3-((R)-6,8-Dibromo-chroman-4-ylamino)-propylamino]-4H-thieno[3,2-b]pyridine-7-one]
C. difficile [1]; 5 mg/kg BID
  survival on Day 28: > 60%
C. difficile [1]; hamster, in vivo
  efficacy ranking among the MetRS inhibitors tested: best efficacy
C. difficile [2]; 0.25×MIC, 96 hours, all strains
  spores (share of total cells): < 2%
C. difficile [2]; 0.5×MIC, 96 hours, all strains
  spores (share of total cells): < 1%

## Cc1ncc([N+](=O)[O-])n1CCO [metronidazole, reference compound]
C. difficile [2]; subMIC concentrations, all tested strains
  spores (share of total cells): up to 100%

## CN[C@H](CC(C)C)C(=O)N[C@H]1C(=O)N[C@@H](CC(N)=O)C(=O)N[C@H]2C(=O)N[C@H]3C(=O)N[C@H](C(=O)N[C@H](C(=O)O)c4cc(O)cc(O)c4-c4cc3ccc4O)[C@H](O)c3ccc(c(Cl)c3)Oc3cc2cc(c3O[C@@H]2O[C@H](CO)[C@@H](O)[C@H](O)[C@H]2O[C@H]2C[C@](C)(N)[C@H](O)[C@H](C)O2)Oc2ccc(cc2Cl)[C@H]1O [vancomycin, reference compound]
C. difficile [1]; vancomycin treatment, dose not given in the sentence (2.5, 5 or 25 mg/kg used)
  survival on Day 28: 0-10%
